Experimental data reported in patent publication US8961759B2, “Device and method for mitochondrial membrane potential assessment” (priority 2011, dated 2015).

Key:
[1] = compared with DDA+; cited from earlier work
[2] = value given for Equation 3; cited from earlier work
[3] = test system: human mitochondria (Heb7A); experiment: Mitochondrial membrane potential assay with sensor device 1000, substrates and inhibitors added (FIG. 12); format: cell-based; conditions: isolated Heb7A mitochondria in respiration buffer, about 10 μM TPP+, sequential additions
Experimental: The voltmeter was linked to the computer via a GPIB interface (National Instrument, GPIB-USB-HS) for data communication. The voltage signal from the voltmeter was acquired using Labview software, so that simultaneous monitoring of the mitochondrial membrane potential could be achieved.
The evaluation of the mitochondrial membrane potential was performed with human mitochondria (Heb7A) in respiration buffer (225 mM mannitol, 75 mM sucrose, 10 mM KCl, 10 mM Tris-HCl, 5 mM KH2PO4, pH 7.2). The measurements were repeated 4 times with freshly prepared mitochondria to confirm the performance and the reproducibility of the sensor. […] 25 ng of isolated mitochondria in 85 μL was used for the test resulting in a final concentration of 0.29 ng/μL.
FIG. 11 illustrates an image of a complete sensor device 1000 showing the reference electrode 1015 and working electrode 1016 with arrows. The sensing chamber was filled with an initial volume of 71 μL respiration buffer. Once the plot baselined to zero, a 100 μM TPP^+Cl^− solution was added to provide a working concentration. The working concentration of TPP^+ was kept at about 10 μM to prevent inhibition of respiration. After stabilization, isolated mitochondria (5 ng μL/1) were added to the sensing chamber 1011.

| SMILES | diffusion coefficient through mitochondrial membranes relative to other cations such as DDA+ [1] [times faster] | partition coefficient, binding to the external face of the inner membrane (Ko) [2] [µL/mg] | change in the magnitude of ΔΨm after addition [3] |
| --- | --- | --- | --- |
| c1ccc([P+](c2ccccc2)(c2ccccc2)c2ccccc2)cc1 [TPP^+, tetraphenylphosphonium] | 15 | 14.3 |  |
| C=C(C)[C@H]1Cc2c(ccc3c2O[C@@H]2COc4cc(OC)c(OC)cc4[C@@H]2C3=O)O1 [Rot] |  |  | slow decline in the magnitude of ΔΨm |
| O=C(O)CCC(=O)O [succinate] |  |  | increase the magnitude of ΔΨm |
| O=C(O)CC(=O)O [malonate] |  |  | slow decrease in the magnitude of ΔΨm |
